Values of other authors in patent publication US20240325308A1, “AMNIOTIC FLUID STABILIZED COMPOSITIONS AND METHODS FOR IN UTERO DELIVERY OF THERAPEUTIC AGENTS” (The Trustees of the University of Pennsylvania, priority 2021, published 2024).

Tested on: fetal lung
Conditions: vitelline vein injection, gestational age E16 fetuses

## CCCCCCCCCCCCC(O)CN(CCOCCN(CC(O)CCCCCCCCCCCC)CC(O)CCCCCCCCCCCC)CCN1CCN(CCOCCN(CC(O)CCCCCCCCCCCC)CC(O)CCCCCCCCCCCC)CC1 (stereo not shown) [B-4, 1,1′-((2-(2-(4-(2-((2-(2-(bis(2-hydroxytetradecyl)amino)ethoxy)ethyl)(2-hydroxytetradecyl)amino)ethyl)piperazin-1-yl)ethoxy)ethyl)azanediyl)bis(tetradecan-2-ol)]
  Fetal lung delivery of LNPs formulated with the ionizable lipid: highest fetal lung delivery
